Reference: patent US20090252786A1, “Use of a Biologically Active Blood Serum for the Treatment of a Disorder Characterized in a Reduced Function of a GABA Receptor” (priority 2008, published 2009)
Several values for one entry are separate records, joined by “and”; a condition that tells them apart may be missing. Equal values may be shown once.

Key:
[1] = tested on: pyramidal cell layer of CA1, hippocampus slices; assay: hippocampus slice, provocation with bicuculline; parameters: species or system rat; settings: bicuculline 50 μM alone, mean of 4 slices, one mean per series
From the text: (§1) Hippocampus slices were obtained from 11 adult male Sprague-Dawlay rats (Charles River Wiga, Sulzbach, Germany). Rats were kept under a reversed day-night cycle for 2 weeks prior start of the experiments, to allow recording of in-vitro activity from slices during the active phase of their circadian rhythm (Dimpfel et al., 1994, Dimpfel et al., 1995). Animals were exsanguinated under ether anaesthesia, the brain was removed in total and the hippocampal formation was isolated under microstereoscopic sight. The midsection of the hippocampus was fixed to the table of a vibrating microtome (Rhema Labortechnik, Hofheim, Germany) using a cyanoacrylate adhesive, submerged in chilled bicarbonate-buffered saline (artificial cerebro spinal fluid (ACSF) NaCl: 124 mM; KCl: 5 mM; CaCl2: 2 mM; MgSO4: 2 mM; NaHCO3: 26 mM; and glucose: 10 mM), and cut into slices of 400 μm thickness. All slices were preincubated for at least 1 h in carbogen ([…])-saturated ACSF (pH 7.4) in a prechamber before use (see also Dimpfel et al., 1991).
During the experiment the slices were held and treated in a special Superfusion chamber (List Electronics, Darmstadt, Germany) at 35° C. according to Haas et al., 1979 (see also: Schiff and Somjen, 1985). Four slices were used from one rat per day under one of the test conditions (control or various concentrations of the S1 compound). […]

[2] = tested on: pyramidal cell layer of CA1, hippocampus slices; assay: hippocampus slice, provocation with pentylenetetrazol; parameters: species or system rat; settings: PTZ 50 μM alone
From the text: as §1
During the experiment the slices were held and treated in a special Superfusion chamber (List Electronics, Darmstadt, Germany) at 35° C. according to Haas et al., 1979 (see also: Schiff and Somjen, 1985). Four slices were used from one rat per day under one of the test conditions (control or various concentrations of the S1 compound). The preparation was superfused with artificial cerebrospinal fluid (ACSF) at 180-230 ml/h. Electrical stimulation (200 μA constant current pulses of 200 μs pulse width) of the Schaffer Collaterals within the […] area and recording of extracellular field potentials from the pyramidal cell layer of CA1 (Dimpfel et al., 1991) as shown in FIG. 4 and FIG. 5 was performed according to conventional electrophysiological methods using the “Labteam” Computer system and “NeuroTool” software package (Medisyst GmbH, Linden, Germany). Measurements were performed at 10 min intervals to avoid potentiation mechanisms. Four stimulations—each 20 seconds apart—were averaged for each time point. […]

CN1CCc2cc3c(cc2[C@H]1[C@@H]1OC(=O)c2c1ccc1c2OCO1)OCO3 [Bicuculline]
population spike amplitude in % of ACSF value, Bicuculline 50 μM, mean (X) [1]: 256.6% and 248.7% and 237.6% and 249.6%

C1CCc2nnnn2CC1 [PTZ, 6,7,8,9-tetrahydro-5h-tetrazolo(1,5-a)azepine]
population spike amplitude in % of ACSF value, PTZ 50 μM, mean (X) ([2]; mean of 4 slices): 243.9%
population spike amplitude, PTZ 50 μM, mean (X) ([2]; mean of 4 slices): −2854.9 μV
population spike amplitude in % of ACSF value, PTZ 50 μM ([2]; single slices): 254.2% and 244.7% and 232.8% and 243.7%
